Experimental data as given in PMC6736837, “^18F-labelled triazolyl-linked argininamides targeting the neuropeptide Y Y1R for PET imaging of mammary carcinoma” (Scientific Reports, 2019).

Experiments:
hY1R = target: T1, hY1R (Homo sapiens, UniProt P25929); test: Y1R competition binding with [^3H]UR-MK299 on SK-N-MC neuroblastoma cells; details: displacement of [^3H]UR-MK299, SK-N-MC neuroblastoma cells
T1 construct: endogenous in cells; host or cells: SK-N-MC neuroblastoma cells
T1 sequence (P25929 1-384): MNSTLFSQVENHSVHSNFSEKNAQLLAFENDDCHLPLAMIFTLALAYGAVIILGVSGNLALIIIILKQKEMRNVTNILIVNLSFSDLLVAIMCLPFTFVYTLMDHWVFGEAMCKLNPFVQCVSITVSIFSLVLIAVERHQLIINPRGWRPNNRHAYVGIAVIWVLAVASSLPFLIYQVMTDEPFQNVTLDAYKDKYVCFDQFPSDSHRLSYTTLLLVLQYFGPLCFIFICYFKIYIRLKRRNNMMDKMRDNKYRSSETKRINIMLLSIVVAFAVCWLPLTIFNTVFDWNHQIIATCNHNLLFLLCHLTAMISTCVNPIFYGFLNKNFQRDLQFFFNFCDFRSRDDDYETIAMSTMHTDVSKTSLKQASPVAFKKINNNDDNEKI
Description: (§1) Data analysis (four-parameter sigmoidal fitting of specifically bound radioligand plotted against log(concentration) competitor) was performed using SigmaPlot (Systat Software, San Jose, CA, USA) (Y1R binding). IC50 values were converted to Ki values according to the Cheng-Prusoff equation[24].

hY2R = target: T2, hY2R (Homo sapiens, UniProt P49146); test: Competition binding on CHO-hY2-Gqi5-mtAEQ cells with [^3H]propionyl-pNPY; details: for selectivity for Y1R over Y2R (multiple of the Ki value for Y1R): calculated from Ki values; for binding to Y2R (in words): maximum concentration of 10 µM
T2 construct: expressed in transfected cells; host or cells: CHO cells (CHO-hY2-Gqi5-mtAEQ)
T2 sequence (P49146 1-381): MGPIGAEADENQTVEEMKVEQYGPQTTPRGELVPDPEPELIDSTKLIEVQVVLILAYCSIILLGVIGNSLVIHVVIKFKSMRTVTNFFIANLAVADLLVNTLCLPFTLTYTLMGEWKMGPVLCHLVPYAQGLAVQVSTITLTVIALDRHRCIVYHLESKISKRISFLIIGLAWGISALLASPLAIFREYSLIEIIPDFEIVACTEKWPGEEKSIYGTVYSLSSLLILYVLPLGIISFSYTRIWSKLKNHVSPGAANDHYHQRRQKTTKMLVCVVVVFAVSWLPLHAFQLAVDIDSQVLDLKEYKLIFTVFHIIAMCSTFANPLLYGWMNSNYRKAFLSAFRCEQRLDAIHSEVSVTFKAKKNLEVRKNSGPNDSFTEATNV
Description: as §1
(§2) Table S1: Structures, in-vitro Y1 receptor affinities and selectivities of potential Y1R PET radioligands. For Y2R, Y4R and Y5R, Ki values are given in the first row. In the second row, the calculated selectivities for Y1R over Y2R, Y4R and Y5R are given as a multiple of the Ki value for […]
(§3) compound structure hY1R hY2R hY4R hY5R
(§4) Ki ± SEMa Kiselectivity selectivity selectivity […]
(§5) aDetermined by competition binding on SK-N-MC neuroblastoma cells using the radioligand [3H]UR-MK2994.
(§6) Mean Ki values ± SEM are the results of three individual experiments each performed in triplicate. bDetermined by competition binding at CHO-hY2-Gqi5-mtAEQ cells and HEC-1b hY5R cells using the radioligand [3H]propionyl-pNPY. Two independent experiments were performed in triplicate. cDetermined by competition binding on CHO-hY4R-Gqi5-mtAEQ cells using the radioligand [3H]UR-KK200.
(§7) Two independent experiments were performed in triplicate.
(§8) SEM = standard error of the mean. […]

hY4R = target: T3, hY4R (Homo sapiens, UniProt P50391); test: Competition binding on CHO-hY4R-Gqi5-mtAEQ cells with [^3H]UR-KK200; details: for Ki: CHO-hY4R-Gqi5-mtAEQ cells, [^3H]UR-KK200; for selectivity for Y1R over Y4R (multiple of the Ki value for Y1R): calculated from Ki values; for binding to Y4R (in words): maximum concentration of 10 µM
T3 construct: expressed in transfected cells; host or cells: CHO cells (CHO-hY4R-Gqi5-mtAEQ)
T3 sequence (P50391 whole entry): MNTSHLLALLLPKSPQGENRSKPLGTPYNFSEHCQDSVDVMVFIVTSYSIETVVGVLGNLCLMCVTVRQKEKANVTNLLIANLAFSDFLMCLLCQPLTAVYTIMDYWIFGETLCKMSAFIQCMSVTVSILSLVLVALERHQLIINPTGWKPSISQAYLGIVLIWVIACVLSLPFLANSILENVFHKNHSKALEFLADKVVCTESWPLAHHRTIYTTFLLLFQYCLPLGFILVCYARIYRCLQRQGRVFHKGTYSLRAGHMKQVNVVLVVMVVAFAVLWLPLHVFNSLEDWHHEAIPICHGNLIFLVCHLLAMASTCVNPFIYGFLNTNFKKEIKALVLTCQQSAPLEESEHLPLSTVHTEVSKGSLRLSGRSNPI
Description: as §1, §2, §3, §4, §5, §6, §7, §8

hY5R = target: T4, hY5R (Homo sapiens, UniProt Q15761); test: Competition binding on HEC-1b hY5R cells with [^3H]propionyl-pNPY; details: for selectivity for Y1R over Y5R (multiple of the Ki value for Y1R): calculated from Ki values; for binding to Y5R (in words): maximum concentration of 10 µM
T4 construct: expressed in transfected cells; host or cells: HEC-1b cells (HEC-1b hY5R)
T4 sequence (Q15761 1-445): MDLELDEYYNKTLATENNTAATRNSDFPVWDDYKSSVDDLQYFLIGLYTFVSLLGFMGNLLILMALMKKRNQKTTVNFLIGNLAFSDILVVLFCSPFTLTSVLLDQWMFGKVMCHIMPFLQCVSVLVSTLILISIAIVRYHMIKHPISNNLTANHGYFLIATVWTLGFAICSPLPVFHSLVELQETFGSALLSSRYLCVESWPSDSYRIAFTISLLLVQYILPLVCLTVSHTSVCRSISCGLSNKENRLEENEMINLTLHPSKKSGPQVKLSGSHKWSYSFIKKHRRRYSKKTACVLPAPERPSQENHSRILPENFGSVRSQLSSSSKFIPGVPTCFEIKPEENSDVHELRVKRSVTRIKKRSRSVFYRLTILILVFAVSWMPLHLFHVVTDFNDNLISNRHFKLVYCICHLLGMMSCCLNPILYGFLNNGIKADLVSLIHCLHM
Description: as §1, §2, §3, §4, §5, §6, §7, §8

Row | Ki (hY1R) [µM] | Ki (hY2R) [µM] | selectivity for Y1R over Y2R (multiple of the Ki value for Y1R) (hY2R) [×] | Ki (hY4R) [µM] | selectivity for Y1R over Y4R (multiple of the Ki value for Y1R) (hY4R) [×] | Ki (hY5R) [µM] | selectivity for Y1R over Y5R (multiple of the Ki value for Y1R) (hY5R) [×] | SMILES | binding to Y2R (in words) (hY2R) | binding to Y4R (in words) (hY4R) | binding to Y5R (in words) (hY5R)
1 | 0.00094 | – | – | – | – | – | – | C#CCNC(=O)N=C(N)NCCC[C@@H](NC(=O)C(c1ccccc1)c1ccccc1)C(=O)NCc1ccc(O)cc1 [compound 7] | – | – | –
2 | 0.208 | > 10 | > 48 | > 3 | > 14 | > 15 | > 72 | N/C(=N/C(=O)NCc1cn([C@@H]2OC(CF)[C@@H](O)C(O)C2O)nn1)NCCC[C@@H](NC(=O)C(c1ccccc1)c1ccccc1)C(=O)NCc1ccc(O)cc1 (stereo partly drawn) [compound 11, (2R)‐5‐{[(1Z)‐Amino({[({1‐[(2R,5S)‐6‐(fluoromethyl)‐3,4,5‐trihydroxyoxan‐2‐yl]‐1H‐1,2,3‐triazol‐4‐yl}methyl)carbamoyl]imino})methyl]amino}‐2‐(2,2‐diphenylacetamido)‐N‐[(4‐hydroxyphenyl)-methyl]pentanamide] | None of the three compounds showed considerable binding | None of the three compounds showed considerable binding | None of the three compounds showed considerable binding
3 | 0.0028 | > 10 | > 3610 | > 10 | > 3610 | > 15 | > 5415 | N/C(=N/C(=O)NCc1cn(CCOCCF)nn1)NCCC[C@@H](NC(=O)C(c1ccccc1)c1ccccc1)C(=O)NCc1ccc(O)cc1 [compound 12, (2R)‐5‐{[(1Z)‐Amino({[({1‐[2‐(2‐fluoroethoxy)ethyl]‐1H‐1,2,3‐triazol‐4‐yl}methyl)carbamoyl]-imino})methyl]amino}‐2‐(2,2‐diphenylacetamido)‐N‐[(4‐hydroxyphenyl)methyl]pentanamide] | None of the three compounds showed considerable binding | None of the three compounds showed considerable binding | None of the three compounds showed considerable binding
4 | 0.029 | > 5 | > 173 | > 10 | > 345 | > 10 | > 345 | N/C(=N/C(=O)NCc1cn(CCOCCOCCOCCF)nn1)NCCC[C@@H](NC(=O)C(c1ccccc1)c1ccccc1)C(=O)NCc1ccc(O)cc1 [compound 13, (2R)‐5‐{[(1Z)‐Amino[({[1‐(2‐{2‐[2‐(2‐fluoroethoxy)ethoxy]ethoxy}ethyl)‐1H‐1,2,3‐triazol‐4‐yl]methyl}carbamoyl)imino]methyl]amino}‐2‐(2,2‐diphenylacetamido)‐N‐[(4‐hydroxyphenyl)-methyl]pentanamide] | None of the three compounds showed considerable binding | None of the three compounds showed considerable binding | None of the three compounds showed considerable binding
